Organism: Rattus norvegicus
Experiment: DrugMatrix - Regimen: Daily Repeat
Type: toxicity, organism-based, Sprague-Dawley
Parameters: regimen Daily Repeat, gender Male, age 6-8 weeks
Conditions: in vivo, po, route oral GAVAGE, vehicle .5 % CMC; for ABSOLUTE BASOPHIL / ABSOLUTE EOSINOPHIL / ABSOLUTE LYMPHOCYTE / ABSOLUTE MONOCYTE / ABSOLUTE SEGMENTED NEUTROPHIL / BASOPHIL / EOSINOPHIL / ERYTHROCYTE COUNT / HEMATOCRIT / HEMOGLOBIN / LEUKOCYTE COUNT / LYMPHOCYTE / MEAN CORPUSCULAR HEMOGLOBIN / MEAN CORPUSCULAR HEMOGLOBIN CONCENTRATION / MEAN CORPUSCULAR VOLUME / MONOCYTE / NEUTROPHIL / NUCLEATED RED BLOOD CELLS / PLATELET COUNT: tissue Blood; for ALANINE AMINOTRANSFERASE / ALBUMIN / ALKALINE PHOSPHATASE / ASPARTATE AMINOTRANSFERASE / BLOOD UREA NITROGEN / CARBON DIOXIDE / CHLORIDE / CHOLESTEROL / CREATINE PHOSPHOKINASE / CREATININE / GLUCOSE / LACTATE DEHYDROGENASE / LIPASE / PHOSPHORUS / POTASSIUM / SODIUM / TOTAL BILIRUBIN / TOTAL PROTEIN / URIC ACID: tissue Plasma
[1] = 150 mg/kg, 120 h, dose level Low, time 5 day
[2] = 1500 mg/kg, 72 h, dose level High, time 3 day
[3] = 1500 mg/kg, 120 h, dose level High, time 5 day

SMILES: C[C@]1(Cn2ccnn2)[C@H](C(=O)O)N2C(=O)C[C@H]2S1(=O)=O [TAZOBACTAM]
- ABSOLUTE BASOPHIL [1]: 0 CELLS/uL
- ABSOLUTE EOSINOPHIL [1]: 96 CELLS/uL
- ABSOLUTE LYMPHOCYTE [1]: 12730.67 CELLS/uL
- ABSOLUTE MONOCYTE [1]: 0 CELLS/uL
- ABSOLUTE SEGMENTED NEUTROPHIL [1]: 1940 CELLS/uL
- BASOPHIL [1]: 0%
- EOSINOPHIL [1]: 0.67%
- ERYTHROCYTE COUNT [1]: 5.47 x10E6/uL
- HEMATOCRIT [1]: 33.33%
- HEMOGLOBIN [1]: 12.73 G/DL
- LEUKOCYTE COUNT [1]: 14.77 x10E3/uL
- LYMPHOCYTE [1]: 86%
- MEAN CORPUSCULAR HEMOGLOBIN [1]: 23.3 pg
- MEAN CORPUSCULAR HEMOGLOBIN CONCENTRATION [1]: 38.2 G/DL
- MEAN CORPUSCULAR VOLUME [1]: 60.97 fL
- MONOCYTE [1]: 0%
- NEUTROPHIL [1]: 13.33%
- NUCLEATED RED BLOOD CELLS [1]: 0 /100WBC
- PLATELET COUNT [1]: 1082 x10E3/uL
- ALANINE AMINOTRANSFERASE [1]: 60.67 u/L
- ALBUMIN [1]: 4.2 G/DL
- ALKALINE PHOSPHATASE [1]: 333 u/L
- ASPARTATE AMINOTRANSFERASE [1]: 84 u/L
- BLOOD UREA NITROGEN [1]: 17.33 mg/dL
- CARBON DIOXIDE [1]: 23.33 mmol/L
- CHLORIDE [1]: 104.33 MEQ/L
- CHOLESTEROL [1]: 76.67 mg/dL
- CREATINE PHOSPHOKINASE [1]: 277 u/L
- CREATININE [1]: 0.21 mg/dL
- GLUCOSE [1]: 141.33 mg/dL
- LACTATE DEHYDROGENASE [1]: 295.67 u/L
- LIPASE [1]: 9 u/L
- PHOSPHORUS [1]: 13.07 mg/dL
- POTASSIUM [1]: 6.29 MEQ/L
- SODIUM [1]: 144.97 MEQ/L
- TOTAL BILIRUBIN [1]: 0.17 mg/dL
- TOTAL PROTEIN [1]: 5.8 G/DL
- URIC ACID [1]: 1.83 mg/dL
- ABSOLUTE BASOPHIL [2]: 0 CELLS/uL
- ABSOLUTE EOSINOPHIL [2]: 240.33 CELLS/uL
- ABSOLUTE LYMPHOCYTE [2]: 12544 CELLS/uL
- ABSOLUTE MONOCYTE [2]: 44.33 CELLS/uL
- ABSOLUTE SEGMENTED NEUTROPHIL [2]: 838 CELLS/uL
- BASOPHIL [2]: 0%
- EOSINOPHIL [2]: 1.67%
- ERYTHROCYTE COUNT [2]: 5.29 x10E6/uL
- HEMATOCRIT [2]: 33.47%
- HEMOGLOBIN [2]: 12.83 G/DL
- LEUKOCYTE COUNT [2]: 13.67 x10E3/uL
- LYMPHOCYTE [2]: 91.67%
- MEAN CORPUSCULAR HEMOGLOBIN [2]: 24.23 pg
- MEAN CORPUSCULAR HEMOGLOBIN CONCENTRATION [2]: 38.33 G/DL
- MEAN CORPUSCULAR VOLUME [2]: 63.23 fL
- MONOCYTE [2]: 0.33%
- NEUTROPHIL [2]: 6.33%
- NUCLEATED RED BLOOD CELLS [2]: 0 /100WBC
- PLATELET COUNT [2]: 1291.33 x10E3/uL
- ALANINE AMINOTRANSFERASE [2]: 65.33 u/L
- ALBUMIN [2]: 4.1 G/DL
- ALKALINE PHOSPHATASE [2]: 447.33 u/L
- ASPARTATE AMINOTRANSFERASE [2]: 89 u/L
- BLOOD UREA NITROGEN [2]: 15.67 mg/dL
- CARBON DIOXIDE [2]: 27.33 mmol/L
- CHLORIDE [2]: 102.67 MEQ/L
- CHOLESTEROL [2]: 73.33 mg/dL
- CREATINE PHOSPHOKINASE [2]: 209.33 u/L
- CREATININE [2]: 0.18 mg/dL
- GLUCOSE [2]: 161.67 mg/dL
- LACTATE DEHYDROGENASE [2]: 102 u/L
- LIPASE [2]: 9 u/L
- PHOSPHORUS [2]: 13.27 mg/dL
- POTASSIUM [2]: 6.83 MEQ/L
- SODIUM [2]: 146.53 MEQ/L
- TOTAL BILIRUBIN [2]: 0.17 mg/dL
- TOTAL PROTEIN [2]: 5.63 G/DL
- URIC ACID [2]: 1.73 mg/dL
- ABSOLUTE BASOPHIL [3]: 0 CELLS/uL
- ABSOLUTE EOSINOPHIL [3]: 130.33 CELLS/uL
- ABSOLUTE LYMPHOCYTE [3]: 11683.33 CELLS/uL
- ABSOLUTE MONOCYTE [3]: 0 CELLS/uL
- ABSOLUTE SEGMENTED NEUTROPHIL [3]: 1019.67 CELLS/uL
- BASOPHIL [3]: 0%
- EOSINOPHIL [3]: 1%
- ERYTHROCYTE COUNT [3]: 5.74 x10E6/uL
- HEMATOCRIT [3]: 36.23%
- HEMOGLOBIN [3]: 13.93 G/DL
- LEUKOCYTE COUNT [3]: 12.83 x10E3/uL
- LYMPHOCYTE [3]: 91%
- MEAN CORPUSCULAR HEMOGLOBIN [3]: 24.47 pg
- MEAN CORPUSCULAR HEMOGLOBIN CONCENTRATION [3]: 38.5 G/DL
- MEAN CORPUSCULAR VOLUME [3]: 63.5 fL
- MONOCYTE [3]: 0%
- NEUTROPHIL [3]: 8%
- NUCLEATED RED BLOOD CELLS [3]: 0 /100WBC
- PLATELET COUNT [3]: 1185.67 x10E3/uL
- ALANINE AMINOTRANSFERASE [3]: 58.67 u/L
- ALBUMIN [3]: 4.4 G/DL
- ALKALINE PHOSPHATASE [3]: 302 u/L
- ASPARTATE AMINOTRANSFERASE [3]: 76 u/L
- BLOOD UREA NITROGEN [3]: 18.33 mg/dL
- CARBON DIOXIDE [3]: 27 mmol/L
- CHLORIDE [3]: 104 MEQ/L
- CHOLESTEROL [3]: 62.67 mg/dL
- CREATINE PHOSPHOKINASE [3]: 174 u/L
- CREATININE [3]: 0.22 mg/dL
- GLUCOSE [3]: 170 mg/dL
- LACTATE DEHYDROGENASE [3]: 115.67 u/L
- LIPASE [3]: 9 u/L
- PHOSPHORUS [3]: 12.83 mg/dL
- POTASSIUM [3]: 6.45 MEQ/L
- SODIUM [3]: 148.17 MEQ/L
- TOTAL BILIRUBIN [3]: 0.2 mg/dL
- TOTAL PROTEIN [3]: 6.2 G/DL
- URIC ACID [3]: 1.8 mg/dL

Reference: ChEMBL document CHEMBL3885881, “DrugMatrix”
